Data taken from patent US20240246954A1, “COMPOSITIONS AND METHODS FOR INHIBITING KRAS” (TheRas, Inc., priority 2021, published 2024).

Legend:
[1] = biological target: T1, Avi-KRAS G12D/Q25A (1-169) GppNHp/3×FLAG-PI3KCA (157-299) (Homo sapiens, UniProt P01116, G12D/Q25A); test: HTRF PI3KCA-KRAS G12D/Q25A-GppNHp disruption assay; type: biochemical; details: 1 h incubation
T1 construct: Avi-KRAS G12D/Q25A (1-169) GppNHp
Description: (§1) The HTRF assay employed the following protocol:
(§2) Compounds were dispensed in assay plate (384-well, Grenier Bione #784075) using Echo (model 555) with dose response settings: 200 nL final volume, titration from 100 μM as a 10-point dilution series. Protein mix was prepared in assay buffer, and dispensed on plates, 10 μL per well, then incubated for 1 h at room temperature, with 700 rpm shaking. Reagents mix was prepared and dispensed on plates, 10 μL per well, then incubated for 1 h at room temperature, with 700 rpm shaking.
(§3) Plates were analyzed on an Envision plate reader using the following setting: Excitation 320 nm, Bandwidth […]; Emission 615 nm, Bandwidth […], Gain 100%, Flashes 100, Lag 60 μs. Data was reported as percentage of activity, with DMSO as 100%. Data was plotted and analyzed using Prism 8.

[2] = biological target: T2, Avi-KRAS G12D (1-169) GppNHp/RAF1 RBD-3×FLAG (52-151) (Homo sapiens, UniProt P01116, G12D); test: HTRF Raf1-KRAS G12D-GppNHp disruption assay; type: biochemical; details: 1 h incubation
T2 construct: Avi-KRAS G12D (1-169) GppNHp
T2 sequence (P01116 1-169 isoform P01116-2 G12D limits assumed): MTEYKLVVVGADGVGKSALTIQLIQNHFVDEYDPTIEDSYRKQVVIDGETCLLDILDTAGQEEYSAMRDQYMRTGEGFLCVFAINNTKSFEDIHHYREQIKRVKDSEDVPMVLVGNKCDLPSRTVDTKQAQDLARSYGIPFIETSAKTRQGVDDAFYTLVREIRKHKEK
Description: as §1, §2, §3

T1 sequence (P01116 1-169 isoform P01116-2 G12D/Q25A limits assumed): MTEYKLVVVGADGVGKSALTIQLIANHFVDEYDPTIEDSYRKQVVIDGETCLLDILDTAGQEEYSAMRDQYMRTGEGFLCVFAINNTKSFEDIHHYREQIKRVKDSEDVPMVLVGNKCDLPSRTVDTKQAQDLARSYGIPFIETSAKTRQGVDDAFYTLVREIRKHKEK

Row | IC50 [1] [µM] | IC50 [2] [µM] | SMILES
1 | 10 to 30 | 10 to 30 | CN1CCC(c2nc(NC3CNC3)c3cc(Cl)c(-c4ccc(F)c5sc(N)nc45)c(F)c3n2)CC1 [Compound 102]
2 | 1 to 10 | 1 to 10 | Nc1nc2c(-c3c(OC(F)(F)F)cc4c(N5CC6CCC(C5)N6)nc(OCC56CCCN5CCC6)nc4c3F)ccc(F)c2s1 [Compound 231]
3 | 1 to 10 | 1 to 10 | CO[C@@H]1C[C@@H](COc2nc(NC3CNC3)c3cc(C(F)(F)F)c(-c4ccc(F)c5sc(N)nc45)c(F)c3n2)N(C)C1 [Compound 122]
4 | 10 to 30 | 10 to 30 | CCN(c1nc(OC[C@@H]2CCCN2C)nc2c(F)c(-c3ccc(F)c4sc(N)nc34)c(Cl)cc12)C1CNC1 [Compound 196]
5 | 10 to 30 | 10 to 30 | CN1CCC[C@H]1COc1nc(N(CCC#N)C2CN(C(=O)CN)C2)c2cc(Cl)c(-c3ccc(F)c4sc(N)nc34)c(F)c2n1 [Compound 183]
6 | 10 to 30 | 10 to 30 | C#Cc1cc2c(N3CCNCC3)ncnc2c(F)c1-c1ccc(F)c2sc(N)nc12 [Compound 66, 4-(6-ethynyl-8-fluoro-4-(piperazin-1-yl)quinazolin-7-yl)-7-fluorobenzo[d]thiazol-2-amine]
7 | 1 to 10 | 1 to 10 | CN1CC(C)(C)C[C@H]1COc1nc(N2CC3CCC(C2)N3)c2cc(C(F)(F)F)c(-c3ccc(F)c4sc(N)nc34)c(F)c2n1 [Compound 253]
8 | 10 to 30 | 10 to 30 | N#CCCN1CCC[C@H]1COc1nc(NC2CNC2)c2cc(Cl)c(-c3ccc(F)c4sc(N)nc34)c(F)c2n1 [Compound 178]
9 | 1 to 10 | 1 to 10 | CN(c1nc(OCC23CCCN2CCC3)nc2c(F)c(-c3ccc(F)c4sc(N)nc34)c(C(F)(F)F)cc12)[C@@H]1CCN(C(N)=O)C1 (atropisomer, axis not shown) [Compound 278]
10 | 10 to 30 | 10 to 30 | C[C@@H]1CN(c2nc(OC[C@@]34CCCN3C[C@@H](F)C4)nc3c(F)c(-c4ccc(F)c5sc(N)nc45)c(C(F)(F)F)cc23)[C@@H](C)CN1 [Compound 224]
11 |  | 10 to 30 | NCC(=O)N1CCN(c2nc(OC[C@@H]3CCCN3CC(F)F)nc3c(F)c(-c4ccc(F)c5sc(N)nc45)c(C(F)(F)F)cc23)CC1 [Compound 193]
12 | 0.1 to 1 | 0.1 to 1 | CN(c1nc(OCC23CCCN2CCC3)nc2c(F)c(-c3ccc(F)c4sc(N)nc34)c(C(F)(F)F)cc12)[C@H]1C[C@@H](N)C1 (atropisomer, axis not shown) [Compound 250]
13 | 10 to 30 | 10 to 30 | CN1CCC[C@H]1COc1nc(NCCN)c2cc(Cl)c(-c3cccc4oc(N)nc34)c(F)c2n1 [Compound 92]
14 | 10 to 30 | 1 to 10 | CN(c1nc(OCC23CCCN2CCC3)nc2c(F)c(-c3ccc(F)c4sc(N)nc34)c(Cl)cc12)C1CN(C(N)=O)C1 [Compound 182]
15 | 1 to 10 | 0.1 to 1 | Nc1nc2c(-c3c(-c4ccoc4)cc4c(N5CC6CCC(C5)N6)nc(OC[C@@]56CCCN5C[C@H](F)C6)nc4c3F)ccc(F)c2s1 [Compound 237]
16 | 10 to 30 | 10 to 30 | CNc1nc2c(-c3c(Cl)cc4c(NCCN)nc(OC[C@@H]5CCCN5C)nc4c3F)ccc(F)c2s1 [Compound 87]
17 | 1 to 10 | 1 to 10 | Nc1nc2c(-c3c(C(F)(F)F)cc4c(NC5CC6CC[C@@H](C5)N6)nc(OCC56CCCN5CCC6)nc4c3F)ccc(F)c2s1 (stereo partly drawn) [Compound 263]
18 | 10 to 30 | 10 to 30 | CN(c1nc(OC[C@@]23CCCN2C[C@H](F)C3)nc2cc(-c3ccc(F)c4sc(N)nc34)c(C(F)(F)F)cc12)[C@H]1CNC[C@@H]1F [Compound 362]
19 | 10 to 30 | 1 to 10 | C[C@H]1CNCCN1c1nc(OC[C@@]23CCCN2C[C@@H](F)C3)nc2c(F)c(-c3ccc(F)c4sc(N)nc34)c(C(F)(F)F)cc12 [Compound 222]
20 | 1 to 10 | 1 to 10 | C[C@@H]1CNC[C@@H]1N(C)c1nc(OC[C@@]23CCCN2C[C@H](F)C3)nc2c(F)c(-c3ccc(F)c4sc(N)nc34)c(C(F)(F)F)cc12 [Compound 292]
21 | 1 to 10 | 1 to 10 | NC(=O)N1C2CCC1CN(c1nc(OC[C@@]34CCCN3C[C@H](F)C4)nc3c(F)c(-c4ccc(F)c5sc(N)nc45)c(C(F)(F)F)cc13)C2 [Compound 273]
22 | 10 to 30 | 1 to 10 | CN1C[C@H](F)C[C@H]1COc1nc(N2CCNCC2)c2cc(C(F)(F)F)c(-c3ccc(F)c4sc(N)nc34)c(F)c2n1 [Compound 140]
23 | 1 to 10 | 0.1 to 1 | Nc1nc2c(F)ccc(-c3c(-c4ccoc4)cc4c(NC5CNC5)nc(OCC56CCCN5CCC6)nc4c3F)c2s1 [Compound 113]
